Calls of active or inactive are those of the source. The rule behind the calls is not given here.
Assays:
Hepatitis C virus [1] = assay: Antiviral activity against HCV JFH-1 J399EM infected in Human Huh7.5.1 cells assessed as suppression of viral replication at 50 uM after 72 hrs by EGFP assay; assay type: functional; conditions: for inhibition: Hepacivirus hominis, Huh-7; for inhibition at 50 µM: Huh-7, 72 h
[2] = Cytotoxicity against human Huh7.5.1 cells by MTT assay; assay type: cell-based, Huh-7
Hepatitis C virus [3] = assay: Antiviral activity against HCV JFH-1 J399EM infected in Human Huh7.5.1 cells assessed as suppression of viral replication after 72 hrs by EGFP assay; assay type: functional, organism-based, Hepacivirus hominis; conditions: Huh-7, 72 h
Hepatitis C virus [4] = assay: Antiviral activity against HCV genotype 2a […] in Human Huh7.5.1 replicon cells assessed as suppression of viral replication after 72 hrs by luciferase reporter gene assay; assay type: functional, organism-based, Hepacivirus hominis; conditions: Huh-7, 72 h
Hepatitis C virus [5] = assay: Inhibition of HCV 1b NS5B polymerase at 100 uM; set-up: species or system Hepatitis C virus subtype 1b
Hepatitis C virus [6] = assay: Inhibition of HCV 1b NS5B polymerase; set-up: species or system Hepatitis C virus subtype 1b

SMILES | CC50 [2] [µM] | inhibition at 50 µM (Hepatitis C virus [1]) [%] | EC50 (Hepatitis C virus [3]) [µM] | other results
O=c1c(O)c(-c2cccc(O)c2O)oc2ccc(O)cc12 | > 50 | – | – | inhibition (Hepatitis C virus [1]): inactive
O=c1c(O)c(-c2cc(O)c(O)cc2O)oc2ccc(O)cc12 | > 50 | 31.1 | – | –
O=c1c(O)c(-c2ccc(O)cc2)oc2cccc(O)c12 | > 50 | – | 12.7 | –
O=c1cc(-c2ccc(O)c(O)c2)oc2c(O)c(O)ccc12 | > 50 | – | 23.3 | –
O=c1c(O)c(-c2ccccc2)oc2cccc(O)c12 | > 50 | 83.7 | – | –
O=c1cc(-c2ccccc2O)oc2c(O)c(O)ccc12 | > 50 | 51.9 | – | –
O=c1cc(-c2cc(O)c(O)c(O)c2)oc2cc(O)ccc12 | > 50 | – | 38.5 | –
O=c1c(O[C@H]2O[C@@H](CO)[C@@H](O)[C@@H](O)[C@@H]2O)c(-c2ccc(O)c(O)c2)oc2cc(O)cc(O)c12 | > 50 | – | – | inhibition (Hepatitis C virus [1]): inactive
O=C1c2cccc(O)c2C(=O)c2c(O)cc(CO)cc21 [ALOE-EMODIN] | > 50 | – | 20.8 | –
O=c1cc(-c2ccc(O)c(-c3c(O)cc(O)c4c(=O)cc(-c5ccc(O)cc5)oc34)c2)oc2cc(O)cc(O)c12 [AMENTOFLAVONE] | > 50 | – | – | inhibition (Hepatitis C virus [1]): inactive
O=c1cc(-c2ccc(O)cc2)oc2cc(O)cc(O)c12 [APIGENIN] | > 50 | – | 7.9 | EC50 (Hepatitis C virus [4]): 12 µM
O=c1cc(-c2ccccc2)oc2cc(O)c(O)c(O)c12 [BAICALEIN] | > 50 | – | 33.9 | –
O=c1cc(-c2ccccc2)oc2cc(O)cc(O)c12 [CHRYSIN] | > 50 | 51 | – | inhibition at 100 µM (Hepatitis C virus [5]): 30%
COc1c(O)cc2oc(-c3ccc(O)c(O)c3)cc(=O)c2c1O [EUPAFOLIN] | > 50 | – | 33.1 | –
O=c1c(O)c(-c2ccc(O)c(O)c2)oc2cc(O)ccc12 [FISETIN] | > 50 | 26.4 | – | –
O=c1c(O)c(-c2ccccc2)oc2cc(O)cc(O)c12 [GALANGIN] | > 50 | 46.9 | – | –

SMILES | CC50 [2] [µM] | inhibition at 50 µM (Hepatitis C virus [1]) [%] | EC50 (Hepatitis C virus [3]) [µM] | other results
O=c1cc(-c2ccc(O)c(O)c2)oc2cc(O[C@@H]3O[C@H](CO)[C@@H](O)[C@H](O)[C@H]3O)cc(O)c12 [GALUTEOLIN] | > 50 | – | – | inhibition (Hepatitis C virus [1]): inactive
O=c1c(-c2ccc(O)cc2)coc2cc(O)cc(O)c12 [GENISTEIN] | > 50 | – | 14.4 | –
O=c1c(O)c(-c2ccc(O)c(O)c2)oc2c(O)c(O)cc(O)c12 [GOSSYPETIN] | > 50 | – | 47 | –
COc1c(O)cc2oc(-c3ccc(O)cc3)cc(=O)c2c1O [HISPIDULIN] | > 50 | – | 36.3 | –
O=C(/C=C/c1ccc(O)cc1)c1ccc(O)cc1O [ISOLIQUIRITIGENIN] | > 50 | – | 36.1 | –
O=c1cc(-c2ccc(O)c(O)c2)oc2cc(O)c([C@@H]3O[C@H](CO)[C@@H](O)[C@H](O)[C@H]3O)c(O)c12 [ISOORIENTIN] | > 50 | – | – | inhibition (Hepatitis C virus [1]): inactive
COc1cc(-c2oc3cc(O)cc(O)c3c(=O)c2O)ccc1O [ISORHAMNETIN] | > 50 | 47.3 | – | –
COc1ccc(-c2oc3cc(O)cc(O)c3c(=O)c2O)cc1 [KAEMPFERIDE] | > 50 | 27.6 | – | –
O=c1c(O)c(-c2ccc(O)cc2)oc2cc(O)cc(O)c12 [KAEMPFEROL] | > 50 | 51.9 | – | –
O=c1cc(-c2ccc(O)c(O)c2)oc2cc(O)cc(O)c12 [LUTEOLIN] | > 50 | – | 4.7 | EC50 (Hepatitis C virus [4]): 6.6 µM; IC50 (Hepatitis C virus [6]): 1.12 µM
O=c1c(O)c(-c2ccc(O)cc2O)oc2cc(O)cc(O)c12 [MORIN] | > 50 | 31.1 | – | –
O=c1c(O)c(-c2cc(O)c(O)c(O)c2)oc2cc(O)cc(O)c12 [MYRICETIN] | > 50 | – | 46.9 | –
O=c1c(O)c(-c2ccc(O)c(O)c2)oc2cc(O)cc(O)c12 [QUERCETIN] | > 50 | – | 19.8 | –
COc1cc(-c2oc3cc(O)cc(O)c3c(=O)c2O)cc(OC)c1O [SYRINGETIN] | > 50 | – | 15.5 | –
O=c1cc(-c2cc(O)c(O)c(O)c2)oc2cc(O)cc(O)c12 [TRICETIN] | > 50 | – | 32.2 | –
